Measured values: patent US12551532B2, “Long-acting amylin receptor agonists and uses thereof” (Eli Lilly and Company, priority 2021, dated 2026)
Starred links: 1 amine or outer side, 2 acyl side, 3 side chain; linkers in the order of their positions; H or OH if unused. Positions of bridges follow the written chain, without caps; N, C: chain ends. Non-standard residues stand in square brackets, D forms with d. Residues, ends and D or L forms follow the SMILES beside them. Groups on a side chain read outwards from the residue. *: point of attachment. C20 diacid = O=C(O)CCCCCCCCCCCCCCCCCCC(=O)*; γGlu = O=C(O)[C@H](CCC(=O)[*:2])N[*:1]; αMeL = CC(C)C[C@](C)(N)C(=O)O; Orn = NCCC[C@H](N)C(=O)O; CH2 = C([*:1])[*:2]

Test: Body weight and body composition in diet-induced obese rats, 2-week study
Format: in vivo, Long Evan rats
Settings: DIO rats, at 2 weeks vs initial
Method: Male Long Evan rats from Envigo RMS (Indianapolis, IN) at 14 weeks of age are put on a high fat diet (40% of kcal from fat, TD.95217; Envigo RMS, Indianapolis, IN) until 35-45 weeks old. Animals are individually housed in a temperature-controlled facility (75.0° F.; 23.9° C.) with a 12-hour reverse light/dark cycle (lights OFF at 10 AM) and free access to food and water. Body weights are recorded and body composition (fat mass) is determined using Quantitative Nuclear Magnetic Resonance Analysis (ECHO MRI, 3-1 Composition Analyzer; Echo Medical Systems, Houston, TX), followed by randomization into experimental groups (n=5). Rats are administered subcutaneous injections of vehicle or peptide (1 mL/kg) every three days (day 1, 4, 7, 10, and 13). Daily body weights are recorded and changes at end of treatment (day 14) are calculated as percentages versus pre-treatment weights (day 1). Body composition is determined on day 14, and changes in fat mass and fat-free mass (body weight−fat mass) are calculated from pre-treatment values as gram changes.

[1] = 100 nmol/kg SC every three days

CC[C@H](C)[C@H](NC(=O)[C@@H]1CCCN1C(=O)CNC(=O)[C@H](Cc1ccccc1)NC(=O)[C@H](CC(N)=O)NC(=O)[C@H](Cc1c[nH]cn1)NC(=O)[C@H](CO)NC(=O)[C@H](CO)NC(=O)[C@H](CCCNC(=N)N)NC(=O)[C@@H](NC(=O)[C@H](CC(C)C)NC(=O)[C@H](Cc1ccccc1)NC(=O)[C@H](CCC(=O)O)NC(=O)[C@H](C)NC(=O)[C@](C)(CC(C)C)NC(=O)[C@H](CCCN)NC(=O)CNC(=O)[C@@H](NC(=O)[C@H](C)NC(=O)[C@@H]1CSCSC[C@H](NC(=O)[C@@H](N)CCCCNC(=O)CC[C@H](NC(=O)CC[C@H](NC(=O)CCCCCCCCCCCCCCCCCCC(=O)O)C(=O)O)C(=O)O)C(=O)N[C@@H](CCC(=O)O)C(=O)N[C@@H]([C@@H](C)O)C(=O)N[C@@H](C)C(=O)N[C@@H]([C@@H](C)O)C(=O)N1)[C@@H](C)O)C(C)C)C(=O)N[C@@H](CC(C)C)C(=O)N1CCC[C@H]1C(=O)N1CCC[C@H]1C(=O)N[C@H](C(=O)N[C@@H](CCC(=O)O)C(=O)N[C@H](C(=O)NCC(=O)N[C@@H](CO)C(=O)N[C@@H](CC(N)=O)C(=O)N[C@H](C(=O)N[C@@H](Cc1ccc(O)cc1)C(N)=O)[C@@H](C)O)C(C)C)[C@@H](C)O [Compound VIII] (H-K([γGlu-γGlu-C20 diacid])CETATCATG[Orn][αMeL]AEFLVRSSHNFGPILPPTEVGSNTY-NH2; linker 2-7 via CH2)
Δ Body Weight (1 nmol/kg SC every three days): −6.0% | Δ Fat Mass (1 nmol/kg SC every three days): -36.6 g | Δ Fat-Free Mass (1 nmol/kg SC every three days): -4.7 g | Δ Body Weight (10 nmol/kg SC every three days): −9.0% | Δ Fat Mass (10 nmol/kg SC every three days): -54.3 g | Δ Fat-Free Mass (10 nmol/kg SC every three days): -7.2 g | Δ Body Weight [1]: −11.5% | Δ Fat Mass [1]: -56.4 g | Δ Fat-Free Mass [1]: -26.9 g
